Data from the supplement of paper PMC11451515.

How the values were obtained:
Test in all cases: AUC of viability dose-response curve (% viability x log10 dose units); higher = less sensitive
Details in all cases: 48 h
[1] = test system: NOMO1
Summary of the method: (§1)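 Leukemia cells adapted to each medium (500 or 1000 cells/well, 1536-well plates) were exposed to library compounds in DMSO for 48 h at 37°C at 11 threefold doses, 47 μM to 0.79 nM. Luminescence by CellTiter-Glo One was normalised per plate to DMSO and cell-free wells, then fitted with a four-parameter log-logistic curve on log10 dose. Curves above full viability were scaled and quality-control failures removed before area under the curve was integrated by trapezoidal rule.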

[2] = test system: SEM cells
Summary of the method: as §1

[3] = test system: P12-Ichikawa
Summary of the method: as §1

[4] = RPMI 5 mM glucose + 10% dialyzed FBS

| SMILES | AUC of viability dose-response curve ([1]; HPLM + 10% dialyzed FBS) | AUC of viability dose-response curve ([1]; RPMI 5 mM glucose + 10% FBS) | AUC of viability dose-response curve [1, 4] | AUC of viability dose-response curve ([2]; HPLM + 10% dialyzed FBS) | AUC of viability dose-response curve ([2]; RPMI 5 mM glucose + 10% FBS) | AUC of viability dose-response curve [2, 4] | AUC of viability dose-response curve ([3]; HPLM + 10% dialyzed FBS) | AUC of viability dose-response curve ([3]; RPMI 5 mM glucose + 10% FBS) | AUC of viability dose-response curve [3, 4] |
| --- | --- | --- | --- | --- | --- | --- | --- | --- | --- |
| NCC/1=C/NC(=S)N1[C@H]2CCC3=C(F)C=C(F)C=C3C2 | 395 | 470 | 466 | 458 | 453 | 456 | 464 | 463 | 462 |
| N[S+](=O)([O-])c1cc2c(cc1Cl)NCN[S+]2(=O)[O-] | 468 | 477 | 470 | 450 | 442 | 412 | 466 | 468 | 474 |
| CCC1=C2CN3C(=O)\C4=C(/C=C3/C2=NC5=CC=C(O)C=C15)[C@@](O)(CC)C(=O)OC4 | 226 | 211 | 218 | 158 | 137 | 140 | 109 | 102 | 105 |
| CNCCN(C)Cc1c[nH]nc1-c1ccc(O[C@H]2C[C@H](OCCC3CCOCC3)C2)cc1 | 457 | 461 | 465 | 436 | 397 | 431 | 457 | 472 | 468 |
| C=C1C(=O)O[C@@H]2[C@H]3O[C@]3(C)CC/C=C(\C)CC[C@@H]12 | 360 | 375 | 386 | 328 | 275 | 329 | 347 | 358 | 351 |
| C[C@]12CCC(=O)C(O)=C1CC[C@@H]1[C@@H]2CC[C@]2(C)C(=O)CC[C@@H]12 | 467 | 454 | 462 | 473 | 471 | 460 | 468 | 455 | 459 |
| Cc1nc(C(=O)NCC(=O)O)c(O)c2ccc(Oc3ccccc3)cc12 | 462 | 442 | 466 | 459 | 454 | 470 | 454 | 455 | 466 |
| NC/1=N/C(=O)C2=C([NH]C=C2CCC3=CC=C(C=C3)C(=O)N[C@@H](CCC(O)=O)C(O)=O)N1 | 358 | 446 | 398 | 355 | 444 | 371 | 372 | 408 | 409 |
| CN1CCN(c2cc(C(=O)Nc3ccc4c(c3)-c3c(c(C(N)=O)nn3-c3ccc(F)cc3)CC4)c(Cl)cn2)CC1 | 442 | 449 | 451 | 444 | 360 | 449 | 448 | 453 | 451 |
| CN1\C(=C(O)/C2=C(C=C(Cl)S2)[S+]1([O-])=O)C(=O)NC3=NC=CC=C3 | 459 | 464 | 477 |  |  |  | 438 | 472 | 458 |
| Cc1cccc(Nc2nc(N[C@@H]3CCCC[C@@H]3N)ncc2C(N)=O)c1 | 424 | 411 | 409 |  |  |  | 334 | 380 | 368 |
| Cc1n[nH]c2ccc(-c3cncc(OC[C@@H](N)Cc4c[nH]c5ccccc45)c3)cc12 | 270 | 310 | 280 | 245 | 286 | 265 | 309 | 294 | 290 |
| Cc1n[nH]c(C)c1Cc1sc2c(c1C(=O)N1C[C@H](O)CO1)c(=O)n(C)c(=O)n2CC(C)C | 456 | 476 | 468 | 366 | 408 | 444 | 416 | 410 | 417 |
| CCCCc1ccc(N[S+](=O)([O-])c2ccc(C)c(C(=O)N3CCN(c4cccc(C)c4C)CC3)c2)cc1 | 457 | 435 | 473 |  |  |  | 468 | 468 | 464 |
| COC1=CC2=C(C=C1CC3=C(F)C(=CC=C3)Cl)C(=O)\C(=C/N2[C@H](CO)C(C)C)C(O)=O | 445 | 452 | 454 |  |  |  | 446 | 421 | 423 |
| O=C1CCc2cc(OCCCCc3nnnn3C3CCCCC3)ccc2N1 | 411 | 433 | 451 | 439 | 438 | 428 | 452 | 436 | 431 |
| COC1=CC=CC(=C1/C2=N/CC3=C(N=C(NC4=CC(=C(C=C4)C(O)=O)OC)N=C3)C5=CC=C(Cl)C=C25)F | 312 | 291 | 297 | 241 | 221 | 216 | 210 | 217 | 230 |
| CO[C@H]1C[C@H]2OC[C@@]2(OC(C)=O)[C@H]3[C@H](OC(=O)C4=CC=CC=C4)[C@]5(O)C[C@H](OC(=O)[C@H](O)[C@@H](NC(=O)OC(C)(C)C)C6=CC=CC=C6)/C(=C(/[C@@H](OC)C(=O)[C@]13C)C5(C)C)C | 125 | 135 | 143 |  |  |  | 135 | 142 | 171 |
| O=C(O)CCCc1ccc(N(CCCl)CCCl)cc1 | 468 | 464 | 465 | 458 | 451 | 458 | 455 | 456 | 462 |

| SMILES | AUC of viability dose-response curve ([1]; HPLM + 10% dialyzed FBS) | AUC of viability dose-response curve ([1]; RPMI 5 mM glucose + 10% FBS) | AUC of viability dose-response curve [1, 4] | AUC of viability dose-response curve ([2]; HPLM + 10% dialyzed FBS) | AUC of viability dose-response curve ([2]; RPMI 5 mM glucose + 10% FBS) | AUC of viability dose-response curve [2, 4] | AUC of viability dose-response curve ([3]; HPLM + 10% dialyzed FBS) | AUC of viability dose-response curve ([3]; RPMI 5 mM glucose + 10% FBS) | AUC of viability dose-response curve [3, 4] |
| --- | --- | --- | --- | --- | --- | --- | --- | --- | --- |
| CCc1nc(C(N)=O)c(Nc2ccc(N3CCC(N4CCN(C)CC4)CC3)c(OC)c2)nc1NC1CCOCC1 | 389 | 410 | 363 | 291 | 285 | 277 | 438 | 436 | 434 |
| O=C(c1ccc(C(=O)N2CCC(N3CCCC3)CC2)c(Nc2ccccc2)c1)N1CCC(N2CCCC2)CC1 | 462 | 452 | 458 | 443 | 461 | 462 | 468 | 466 | 465 |
| COC1=C(CC=C(C)C)C2=C(\C=C/C(=O)O2)C=C1 | 470 | 455 | 460 |  |  |  | 413 | 439 | 416 |
| CNC(=O)c1ccccc1Sc1ccc2c(/C=C/c3ccccn3)n[nH]c2c1 | 425 | 430 | 418 | 407 | 389 | 395 | 390 | 386 | 409 |
| O=C(/C=C/c1cccnc1)NCCCCC1CCN(C(=O)c2ccccc2)CC1 | 102 | 125 | 113 |  |  |  | 81 | 93.4 | 98 |
| O=C(O)c1nn(Cc2ccc(Cl)cc2Cl)c2ccccc12 |  |  |  | 387 | 400 | 375 | 423 | 412 | 379 |
| COc1cc([C@@H]2c3cc4c(cc3[C@H](O)[C@H]3COC(=O)[C@H]23)OCO4)cc(OC)c1OC | 170 | 126 | 138 |  |  |  | 69.5 | 70.5 | 75.2 |
| O=C1N\N=C(\C[C@@H]2CCN(C2)C(=O)C3CC3)N1C4=CC=C(C=C4)C5=CC=C6OC=CC6=C5 | 448 | 397 | 394 |  |  |  | 400 | 376 | 405 |
| COc1cc2nc(N3CCN(C(=O)c4ccco4)CC3)nc(N)c2cc1OC | 411 | 384 | 392 | 332 | 383 | 377 |  |  |  |
| COc1cc([C@@H]2c3cc4c(cc3[C@@H](O[C@@H]3O[C@@H]5CO[C@@H](C)O[C@H]5[C@H](O)[C@H]3O)[C@H]3COC(=O)[C@H]23)OCO4)cc(OC)c1O | 345 | 314 | 311 |  |  |  | 268 | 239 | 244 |
| CN1CCN(CC1)C/2=N/C3=CC=CC=C3NC4=C2C=C(C)S4 |  |  |  | 467 | 454 | 473 | 465 | 458 | 458 |
| CCN(CCO)CCCC(C)Nc1ccnc2cc(Cl)ccc12 (stereo not drawn) | 417 | 429 | 459 |  |  |  | 392 | 400 | 384 |
| CON(C)C(=O)N1\N=C(/S[C@]1(CCCN)C2=CC=CC=C2)C3=CC(=CC=C3F)F |  |  |  | 130 | 103 | 105 |  |  |  |
| COc1ccc(-c2cc3c(C)nc(N)nc3n([C@H]3CC[C@H](OCCO)CC3)c2=O)cn1 | 286 | 322 | 278 |  |  |  | 351 | 299 | 304 |
| C[C@@H](Oc1ccc2[nH]nc(/C=C/c3cnn(CCO)c3)c2c1)c1c(Cl)cncc1Cl | 401 | 379 | 381 |  |  |  | 386 | 385 | 374 |
| OCCN1CCN(CCCN2c3ccccc3Sc3ccc(C(F)(F)F)cc32)CC1 | 411 | 420 | 454 |  |  |  | 403 | 402 | 418 |
| O=P1(NCCCl)OCCCN1CCCl (stereo not drawn) |  |  |  |  |  |  | 424 | 402 | 391 |
| Cc1ccnc(N[S+](=O)([O-])c2ccc(NC(=O)Nc3ccc([S+](=O)([O-])Nc4nccc(C)n4)cc3)cc2)n1 |  |  |  | 236 | 180 | 210 | 274 | 279 | 270 |
| CC(C)C1=N[N](C\2=C1C(=O)N\C(=N2)CC3=CC=C(OCCO)C=C3)C4=C(Cl)C=CC=C4Cl | 225 | 226 | 222 |  |  |  | 244 | 241 | 239 |
